{"source": "patent US20260191189A1", "about": "“CALCIFEROLS TO REDUCE ENVIRONMENTAL IMPACT OF RODENTICIDES” (priority 2021, published 2026)", "key": {"[1]": {"conditions": "Sprague-Dawley rats, oral administration of 3.0 mg/kg; cited from earlier work"}, "[2]": {"conditions": "cited from earlier work"}, "rats or mice": {"system": "rats or mice", "conditions": "in rodenticide bait, alone or combined with warfarin; cited from earlier work"}, "rats and mice": {"system": "rats and mice", "conditions": "cited from earlier work"}, "rats (Rattus norvegicus)": {"system": "rats (Rattus norvegicus)", "assay": "Lab test of stop feeding effect (choice feeding test)", "format": "in vivo", "conditions": "100 mg/kg of calciferol", "source_text": "A lab trial was set up to test the stop-feeding effect induced by calciferol-containing bait in the absence of an anticoagulant rodenticide. Three groups (Group control, Group a, and Group b) of ten rats (Rattus norvegicus) each were subjected to the experiment. The control group and Group a consisted of male rats; Group b consisted of female rats. The groups were kept in three connected pens (20 cm×60 cm) with shelter, saw-dust, water and feed ad libitum under standard laboratory conditions. The rats acclimatized in the test setup for ten days, with standard lab chew ad libitum.\nThe test-bait formulation was a paste-bait, based on vegetable fat and cereal flour, and contained cholecalciferol at 100 mg/kg. During the choice feeding test, the rats of both treatment groups (a and b) received the cholecalciferol-containing bait and the challenge diet (standard rat chew; Höveler, Germany) ad libitum. The control group received the same bait as the treatment groups but without cholecalciferol, and the challenge diet. Consumption of bait and challenge diet was recorded in all groups daily for 14 days. The daily bait consumption results are depicted in FIG. 1.\nFIG. 1 depicts the daily consumption of bait (grams) in the laboratory study of Experiment 1, where three groups of rats (n=10 each) were given a choice between standard lab diet, and bait with or without cholecalciferol (100 mg/kg). […]"}}}
{"smiles": "O=c1oc2ccccc2c(O)c1[C@@H]1Cc2ccccc2[C@H](c2ccc(-c3ccc(Br)cc3)cc2)C1", "note": "(single isomer, unassigned) [cis-isomer of brodifacoum]", "values": [{"measurement": "liver half-life", "setting": "[1]", "value": 120.82, "unit": "h"}]}
{"smiles": "O=c1oc2ccccc2c(O)c1C(CC(O)c1ccc(-c2ccc(Br)cc2)cc1)c1ccccc1", "note": "(single isomer, unassigned) [cis-isomer of bromadiolone]", "values": [{"measurement": "liver half-life", "setting": "[1]", "value": 26.89, "unit": "h"}]}
{"smiles": "O=c1oc2ccccc2c(O)c1[C@@H]1C[C@@H](c2ccc(OCc3ccc(C(F)(F)F)cc3)cc2)Cc2ccccc21", "note": "(single isomer, unassigned) [cis-isomer of flocoumafen]", "values": [{"measurement": "liver half-life", "setting": "[1]", "value": 76.73, "unit": "h"}]}
{"smiles": "O=c1oc2ccccc2c(O)c1C1CC(c2ccc(-c3ccc(Br)cc3)cc2)Cc2ccccc21", "note": "(single isomer, unassigned) [trans-isomer of brodifacoum]", "values": [{"measurement": "liver half-life", "setting": "[1]", "value": 68.73, "unit": "h"}]}
{"smiles": "O=c1oc2ccccc2c(O)c1C1CC(c2ccc(-c3ccc(Br)cc3)cc2)Cc2ccccc21", "note": "(stereo not shown) [brodifacoum, 3-[3-[4-(4-bromophenyl)phenyl]-1,2,3,4-tetrahydronaphthalen-1-yl]-4-hydroxychromen-2-one]", "values": [{"measurement": "half-life in the liver", "setting": "[2]; liver", "value": 307.4, "unit": "days"}, {"measurement": "plasma half-life", "setting": "[2]", "value": 91.7, "unit": "days"}]}
{"smiles": "C=C1CC[C@H](O)C/C1=C/C=C1\\CCC[C@]2(C)[C@@H]([C@H](C)/C=C/[C@H](C)C(C)C)CC[C@@H]12", "note": "[calciferol]", "values": [{"measurement": "minimum concentration likely to give good results in the field", "setting": "rats or mice", "value": 0.1, "unit": "%"}, {"measurement": "acute oral LD50", "setting": "rats and mice", "value": "30 to 100", "unit": "mg/kg"}, {"measurement": "stop feeding effect", "setting": "rats (Rattus norvegicus)", "value": "significant stop feeding effect within two days"}]}
{"smiles": "O=c1oc2ccccc2c(O)c1C1CCCc2ccccc21", "note": "(stereo not shown) [coumatetralyl, 4-Hydroxy-3-(1,2,3,4-tetrahydro-1-naphthyl) coumarin]", "values": [{"measurement": "plasma half-life", "setting": "[2]", "value": 0.52, "unit": "days"}]}
